According to publication PMC10279527, “Structural basis of metabolite transport by the chloroplast outer envelope channel OEP21” (Nature Structural & Molecular Biology, 2023):
Where “and” joins values, the source holds several entries; their conditions need not be identical. Identical values can stand only once. Like-named read-outs stand apart in the source and are kept apart here.

What was measured:
[1] = biological target: T1, OEP21 variants (single point mutations, ΔL5) (Pisum sativum, UniProt Q9SM57, R66W); assay: Fluorescence polarization binding of MANT-ATP to OEP21 variants; set-up: species or system garden pea; conditions: OEP21 variant R66W; for Kd: unit inferred;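 as to all read-outs here: KD obtained by fitting fluorescence polarization data to a one-site binding model, each experiment run in triplicate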
T1 construct: made in house; host or cells: Escherichia coli BL21(DE3) (described for OEP21)

[2] = biological target: T2, OEP21 variants (single point mutations, ΔL5) (Pisum sativum, UniProt Q9SM57, R174A); assay: as above; set-up: species or system garden pea; conditions: OEP21 variant R174A; for Kd: unit inferred
T2 construct: made in house; host or cells: Escherichia coli BL21(DE3) (described for OEP21)

[3] = biological target: T3, OEP21 variants (single point mutations, ΔL5) (Pisum sativum, UniProt Q9SM57, R51A); assay: as above; set-up: species or system garden pea; conditions: OEP21 variant R51A, unit inferred
T3 construct: made in house; host or cells: Escherichia coli BL21(DE3) (described for OEP21)

[4] = biological target: T4, OEP21 variants (single point mutations, ΔL5) (Pisum sativum, UniProt Q9SM57, R157A); assay: as above; set-up: species or system garden pea; conditions: OEP21 variant R157A; for Kd: unit inferred
T4 construct: made in house; host or cells: Escherichia coli BL21(DE3) (described for OEP21)

[5] = biological target: T5, OEP21 variants (single point mutations, ΔL5) (Pisum sativum, UniProt Q9SM57, K90A); assay: as above; set-up: species or system garden pea; conditions: OEP21 variant K90A; for Kd: unit inferred
T5 construct: made in house; host or cells: Escherichia coli BL21(DE3) (described for OEP21)

[6] = biological target: T6, OEP21 variants (single point mutations, ΔL5) (Pisum sativum, UniProt Q9SM57, R66A); assay: as above; set-up: species or system garden pea; conditions: OEP21 variant R66A; for Kd: unit inferred
T6 construct: made in house; host or cells: Escherichia coli BL21(DE3) (described for OEP21)

[7] = biological target: T7, OEP21 variants (single point mutations, ΔL5) (Pisum sativum, UniProt Q9SM57, K104A); assay: as above; set-up: species or system garden pea; conditions: OEP21 variant K104A; for Kd: unit inferred
T7 construct: made in house; host or cells: Escherichia coli BL21(DE3) (described for OEP21)

[8] = biological target: T8, OEP21 variants (single point mutations, ΔL5) (Pisum sativum, UniProt Q9SM57, R84A); assay: as above; set-up: species or system garden pea; conditions: OEP21 variant R84A; for Kd: unit inferred
T8 construct: made in house; host or cells: Escherichia coli BL21(DE3) (described for OEP21)

[9] = biological target: T9, OEP21 variants (single point mutations, ΔL5) (Pisum sativum, UniProt Q9SM57, N164R/R66A); assay: as above; set-up: species or system garden pea; conditions: OEP21 variant R66A/N164R; for Kd: unit inferred
T9 construct: made in house; host or cells: Escherichia coli BL21(DE3) (described for OEP21)

[10] = biological target: T10, OEP21 variants (single point mutations, ΔL5) (Pisum sativum, UniProt Q9SM57, R140A); assay: as above; set-up: species or system garden pea; conditions: OEP21 variant R140A; for Kd: unit inferred
T10 construct: made in house; host or cells: Escherichia coli BL21(DE3) (described for OEP21)

[11] = biological target: OEP21 variants (single point mutations, ΔL5); assay: as above; set-up: species or system garden pea; conditions: OEP21 variant dL5; for Kd: unit inferred
[12] = biological target: T11, OEP21 variants (single point mutations, ΔL5) (Pisum sativum, UniProt Q9SM57, C109A); assay: as above; set-up: species or system garden pea; conditions: OEP21 variant C109A; for Kd: unit inferred
T11 construct: made in house; host or cells: Escherichia coli BL21(DE3) (described for OEP21)

[13] = biological target: T12, OEP21 variants (single point mutations, ΔL5) (Pisum sativum, UniProt Q9SM57, K19A); assay: as above; set-up: species or system garden pea; conditions: OEP21 variant K19A; for Kd: unit inferred
T12 construct: made in house; host or cells: Escherichia coli BL21(DE3) (described for OEP21)

[14] = biological target: T13, OEP21 variants (single point mutations, ΔL5) (Pisum sativum, UniProt Q9SM57, R33A); assay: as above; set-up: species or system garden pea; conditions: OEP21 variant R33A; for Kd: unit inferred
T13 construct: made in house; host or cells: Escherichia coli BL21(DE3) (described for OEP21)

[15] = biological target: T14, OEP21 variants (single point mutations, ΔL5) (Pisum sativum, UniProt Q9SM57, R142A); assay: as above; set-up: species or system garden pea; conditions: OEP21 variant R142A; for Kd: unit inferred
T14 construct: made in house; host or cells: Escherichia coli BL21(DE3) (described for OEP21)

OEP21ΔL5 = biological target: T15, OEP21ΔL5 (Pisum sativum, UniProt Q9SM57, DEL70-80); assay: FP competition with preformed MANT-ATP/OEP21ΔL5 complex; type: binding, garden pea
T15 construct: made in house; host or cells: Escherichia coli BL21(DE3) (described for OEP21)
Description: FP assays were performed on a spectrofluorometer FP-8300 (Jasco) equipped with a water bath cooling system MCM-100 (Jasco). […] A buffer containing no EDTA was used when MgCl2 was present. […] KD values were derived by fitting the data to a one-site binding model. […] All FP experiments were performed as triplicates.

OEP21 = OEP21 (Pisum sativum, UniProt Q9SM57); assay: Amide hydrogen exchange NMR (CLEANEX) of OEP21 L5; set-up: made in house; species or system garden pea; conditions: 2 mM ATP or 5 mM GAP; 303 K, pH 6.0
[16] = individual determinations, read-out: KD1-KD3

## 2′-(or-3′)-O-(N-methylanthraniloyl) adenosine 5′-triphosphate [Mant-ATP]
[1]; [16]
  Kd: 275 nM and 175 nM and 227 nM
[1]; relative to mean KD of wt
  rel KD1-KD3: 1.511 and 1.247
[1]; read-out: mean KD
  Kd: 226 nM
[2]; [16]
  Kd: 429 nM and 300 nM and 297 nM
[2]; relative to mean KD of wt
  rel KD1-KD3: 2.357 and 1.648 and 1.632
[2]; read-out: mean KD
  Kd: 342 nM
[3]; [16]
  Kd: 142 nM and 101 nM and 206 nM
[3]; read-out: mean KD
  Kd: 150 nM
[4]; [16]
  Kd: 248 nM and 258 nM and 335 nM
[4]; relative to mean KD of wt
  rel KD1-KD3: 1.363 and 1.418 and 1.841
[4]; read-out: mean KD
  Kd: 280 nM
[5]; [16]
  Kd: 293 nM and 271 nM and 247 nM
[5]; relative to mean KD of wt
  rel KD1-KD3: 1.61 and 1.489 and 1.357
[5]; read-out: mean KD
  Kd: 270 nM
[6]; [16]
  Kd: 214 nM and 195 nM and 190 nM
[6]; relative to mean KD of wt
  rel KD1-KD3: 1.176 and 1.071 and 1.044
[6]; read-out: mean KD
  Kd: 200 nM
[7]; [16]
  Kd: 209 nM and 297 nM and 203 nM
[7]; relative to mean KD of wt
  rel KD1-KD3: 1.148 and 1.632 and 1.115
[7]; read-out: mean KD
  Kd: 236 nM
[8]; [16]
  Kd: 264 nM and 249 nM and 350 nM
[8]; relative to mean KD of wt
  rel KD1-KD3: 1.451 and 1.368 and 1.923
[8]; read-out: mean KD
  Kd: 288 nM
[9]; [16]
  Kd: 172 nM and 184 nM and 211 nM
[9]; relative to mean KD of wt
  rel KD1-KD3: 1.011 and 1.159
[9]; read-out: mean KD
  Kd: 189 nM
[10]; [16]
  Kd: 233 nM and 286 nM and 307 nM
[10]; relative to mean KD of wt
  rel KD1-KD3: 1.28 and 1.571 and 1.687
[10]; read-out: mean KD
  Kd: 275 nM
[11]; [16]
  Kd: 214 nM and 204 nM and 297 nM
[11]; relative to mean KD of wt
  rel KD1-KD3: 1.176 and 1.121 and 1.632
[11]; read-out: mean KD
  Kd: 238 nM
[12]; [16]
  Kd: 190 nM and 220 nM and 213 nM
[12]; relative to mean KD of wt
  rel KD1-KD3: 1.044 and 1.209 and 1.17
[12]; read-out: mean KD
  Kd: 208 nM
[13]; [16]
  Kd: 221 nM and 259 nM and 267 nM
[13]; relative to mean KD of wt
  rel KD1-KD3: 1.214 and 1.423 and 1.467
[13]; read-out: mean KD
  Kd: 249 nM
[14]; [16]
  Kd: 142 nM and 125 nM and 126 nM
[14]; relative to mean KD of wt
  rel KD1-KD3: 0.7802 and 0.6868 and 0.6923
[14]; read-out: mean KD
  Kd: 131 nM
[15]; [16]
  Kd: 270 nM and 331 nM and 267 nM
[15]; relative to mean KD of wt
  rel KD1-KD3: 1.484 and 1.819 and 1.467
[15]; read-out: mean KD
  Kd: 289 nM

## O=C[C@H](O)COP(=O)(O)O [GAP, D-glyceraldehyde-3-phosphate]
OEP21ΔL5; IC50 (dissociation of MANT-ATP), OEP21ΔL5, 1 µM MANT-ATP, 1 µM protein
  IC50: ~26 mM
OEP21ΔL5; dL5, individual determinations, read-out: IC50
  IC50: 31.1 mM and 20.4 mM
OEP21ΔL5; dL5, read-out: mean IC50
  IC50: 25.7 mM
OEP21
  amide hydrogen exchange rates in L5 in the complex (in words): reduced
